Experimental data: US8580814B2, “Methods of using (+)-1,4-dihydro-7-[(3S,4S)-3-methoxy-4-(methylamino)-1-pyrrolidinyl]-4- oxo-1-(2-thiazolyl)-1,8-naphthyridine-3-carboxylic acid for treatment of cancer” (priority 2006, dated 2013)
Marks after values point to notes of the source that are not given here.

Test: Safety (adverse events, hematologic effects, DLT, MTD) in patients with advanced solid tumors
Type: in vivo
Protocol: SNS-595 was administered to patients with advanced solid cancers as an IV infusion over 10 minutes on 2 schedules. In the first schedule (A), a weekly dose of SNS-595 was administered for three weeks followed by at least 7 days off (qwk×3). In the second schedule (B), a dose of SNS-595 was administered once every three weeks (q3wk).
In both schedules, the starting dose of SNS-595 was 3 mg/m^2, and doses were escalated by sequential cohorts of 3. The doses were doubled until the first related adverse event at or above Grade 2 or until the first abnormal lab value. The doses were then escalated by a modified Fibonacci schema.
In the description herein, the term “maximum tolerated dose” or “MTD” refers to the dose level below a dose of SNS-595 where ≧2 of 6 patients experienced dose limiting toxicity (DLT). The term, “heavily pretreated” or “HP” patient refers to a patient who has previously received >6 courses of an alkylating agent, chemotherapy or >2 courses of platinum, mitomycin-C or any nitrosourea, or XRT to >25% of bone. […] (See, Tolcher et al, JCO 2001; 19:2937-2947).
As used herein, dose limiting toxicity (DLT) refers to absolute neutrophil count (ANC) ≦500 for ≧7 days or febrile neutropenia or platelet nadir <25000 or bleeding or non-hematologic adverse events (AE) ≧Grade 3 (as described in Common Terminology Criteria for Adverse Events Version 3.0 (CTCAE v3.0)), wherein adverse events required >14 days dose delay.

CN[C@H]1CN(c2ccc3c(=O)c(C(=O)O)cn(-c4nccs4)c3n2)C[C@@H]1OC [SNS-595, (+)-1,4-dihydro-7-[(3S,4S)-3-methoxy-4-(methylamino)-1-pyrrolidinyl]-4-oxo-1-(2-thiazolyl)-1,8-naphthyridine-3-carboxylic acid]
dose limiting toxicity (DLT) (human, in vivo): neutropenia | dose-limiting toxicity (DLT) (human, in vivo): neutropenia | edema peripheral, no. patients with Grade ≧ 3/no. patients with any Grade (human, in vivo): 0/4* | grade 4 thrombocytopenia (human, in vivo): two patients | non-hematologic toxicities (human, in vivo): mostly grade 1/2 | pain in extremity, no. patients with Grade ≧ 3/no. patients with any Grade (human, in vivo): 0/5 | SAE possibly related to study drug: Sepsis, CTCAE v3.0 Grade (q3wk, 1 patient): Grade 3 | MTD (study A (qwk×3)): 15 mg/m^2 | MTD (study B (q3wk), heavily pretreated (HP) patients): 48 mg/m^2 | MTD (study B (q3wk), minimally pretreated (MP) patients): 60 mg/m^2
